Test results: the supplement of paper PMC10307832

Tests used:
Experiment in all cases: relative viability (nuclei count vs DMSO), 5 days (fraction); higher = more cells survive
Sulindac + Trametinib = compound: CC1=C(CC(=O)O)c2cc(F)ccc2/C1=C\c1ccc([S+](C)[O-])cc1 [Sulindac] + CC(=O)Nc1cccc(-n2c(=O)n(C3CC3)c(=O)c3c(Nc4ccc(I)cc4F)n(C)c(=O)c(C)c32)c1 [Trametinib] (partner 0.02 µM)
Method in brief: (§1)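 Five library-drug doses in √10 steps were combined with a fixed anchor-drug dose, or a single drug was given alone, by pin tool to lung cancer cell lines in 1536-well plates the day after seeding. Nuclei were stained and counted after 5 days. Relative viability is the nuclei count in treated wells over that in vehicle wells, taken as the median of duplicate plates.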

[1] = compound: O=c1[nH]cc(F)c(=O)[nH]1 [5-Fluorouracil] + N=C(N)NC(=N)NCCc1ccccc1 [Phenformin] (partner 250 µM)
Method in brief: as §1

[2] = compound: O=c1[nH]cc(F)c(=O)[nH]1 [5-Fluorouracil] + O=C(c1cc(Cc2n[nH]c(=O)c3ccccc23)ccc1F)N1CCN(C(=O)C2CC2)CC1 [Olaparib] (partner 8 µM)
Method in brief: as §1

[3] = compound: O=c1[nH]cc(F)c(=O)[nH]1 [5-Fluorouracil] + CC1(C)CCC(c2ccc(Cl)cc2)=C(CN2CCN(c3ccc(C(=O)NS(=O)(=O)c4ccc(N[C@H](CCN5CCOCC5)CSc5ccccc5)c(S(=O)(=O)C(F)(F)F)c4)cc3)CC2)C1 [Navitoclax] (partner 0.5 µM)
Method in brief: as §1

Row | Cell Line | relative viability (Sulindac + Trametinib; first compound 0.08 µM) | relative viability (Sulindac + Trametinib; first compound 0.253 µM) | relative viability (Sulindac + Trametinib; first compound 0.8 µM) | relative viability (Sulindac + Trametinib; first compound 2.53 µM) | relative viability (Sulindac + Trametinib; first compound 8 µM) | relative viability ([1]; first compound 0.02 µM) | relative viability ([1]; first compound 0.2 µM) | relative viability ([1]; first compound 0.6325 µM) | relative viability ([1]; first compound 2 µM) | relative viability ([2]; first compound 0.02 µM) | relative viability ([2]; first compound 0.2 µM) | relative viability ([2]; first compound 0.6325 µM) | relative viability ([2]; first compound 2 µM) | relative viability ([3]; first compound 0.02 µM) | relative viability ([3]; first compound 0.2 µM) | relative viability ([3]; first compound 0.6325 µM) | relative viability ([3]; first compound 2 µM)
1 | NCI-H2347 | 0.279 | 0.272 | 0.297 | 0.258 | 0.271 | 0.296 | 0.489 | 0.24 | 0.328 | 0.62 | 0.489 | 0.456 | 0.445 | 0.638 | 0.65 | 0.369 | 0.354
2 | NCI-H2405 | 0.687 | 0.668 | 0.581 | 0.634 | 0.731 | 0.394 | 0.409 | 0.34 | 0.369 | 0.808 | 0.962 | 0.891 | 0.618 | 0.93 | 0.793 | 0.858 | 0.59
3 | NCI-H3122 | 0.222 | 0.243 | 0.203 | 0.214 | 0.267 | 0.366 | 0.349 | 0.21 | 0.174 | 0.51 | 0.542 | 0.299 | 0.216 | 1.04 | 0.743 | 0.443 | 0.259
4 | PC-3 [JPC-3] | 0.668 | 0.659 | 0.701 | 0.695 | 0.725 | 0.48 | 0.476 | 0.496 | 0.45 | 1.17 | 1.14 | 1.09 | 0.912 | 0.793 | 0.759 | 0.767 | 0.63
5 | PC-14 | 0.908 | 0.772 | 0.745 | 0.779 | 1.01 | 0.572 | 0.682 | 0.558 | 0.585 | 0.277 | 0.265 | 0.304 | 0.179 | 1.13 | 1.05 | 0.791 | 0.499
6 | RERF-LC-KJ | 0.99 | 0.928 | 0.778 | 0.877 | 0.933 | 0.465 | 0.452 | 0.466 | 0.386 | 0.985 | 0.829 | 0.878 | 0.763 | 0.834 | 0.971 | 1.01 | 0.554
7 | SK-LU-1 | 0.657 | 0.486 | 0.435 | 0.398 | 0.529 | 0.529 | 0.651 | 0.501 | 0.485 | 0.511 | 0.551 | 0.557 | 0.407 | 1.1 | 1.2 | 0.796 | 0.753
8 | SK-MES-1 | 0.563 | 0.555 | 0.538 | 0.561 | 0.579 | 0.748 | 0.4 | 0.331 | 0.242 | 0.656 | 0.32 | 0.296 | 0.264 | 1.2 | 0.789 | 0.474 | 0.373
9 | SW 1573 | 0.601 | 0.645 | 0.496 | 0.371 | 0.75 | 0.475 | 0.42 | 0.385 | 0.246 | 0.477 | 0.625 | 0.416 | 0.262 | 1.02 | 1.13 | 0.782 | 0.501
